Measured values published in patent US20040023972A1, “Use of substituted imidazo[1,2-a]-pyridin-, -pyrimidin-and-pyrazin-3-yl-amine derivatives in the preparation of medicaments for inhibiting NOS” (Gruenenthal GmbH, priority 2000, published 2004).

target: T1, NO synthase (Rattus norvegicus, UniProt P29476); assay: HTS-NOS assay (NOS assay): conversion of radioactive arginine, cation-exchanger filter plate; format: biochemical; conditions: 10 μM
T1 construct: the supernatant was then removed by decantation and frozen in portions at −80° C; from tissue; host or cells: rat cerebellum, 20,000 g supernatant of homogenate
Protocol: This assay enables the percentage inhibition of NO synthase by an active ingredient to be determined by measuring the NOS activity under the action of the active ingredient. NO synthase is mixed together with radioactively labelled arginine and the active ingredient under suitable conditions. After terminating the NO-forming reaction at a given time, the amount of unconverted arginine is determined directly or indirectly. A comparison of that amount with the amount of arginine that remains in a mixture of NOS and arginine without the addition of active ingredient and under otherwise identical conditions gives the % inhibition of NO synthase by the tested active ingredient. This assay can be carried out as follows:
(a) incubation of NO synthase with labelled arginine as substrate in a reaction vessel,
(b) separation of the labelled arginine from the labelled citrulline optionally formed as a product of the enzymatic reaction, at a time at which the citrulline concentration is increasing,
(c) measurement of the amount of arginine remaining in each case.
Separation is carried out over a filter plate membrane.
This NOS assay is suitable especially for “high throughput screening” (HTS) on microtitre plates (MTP).
In this HTS-NOS assay, radioactive arginine is used as substrate. The assay volume can be chosen in the range from 25 μl to 250 μl, according to the type of microtitre plate (MTP). Depending on the source of the enzyme used, co-factors and co-enzymes are added. Incubation of the batches on this microtitre plate (assay MTP) according to step (a) is carried out at room temperature and is for 5 to 60 minutes according to the enzyme activity used (units). At the end of the incubation (step (a)), the plate is placed into a cell harvester which is equipped with a MTP having a cation-exchanger membrane as the filter base (filter MTP). All batches of the assay MTP are transferred to the filter MTP and filtered off with suction over a cation-exchanger filter plate, a paper filter charged with phosphate groups. The filter MTP is then washed with buffer or water. By means of this procedure, the arginine substrate that remains is bound to the cation exchanger, while the enzymatically formed radioactive citrulline is washed out quantitatively. After drying the filter MTP and adding scintillation liquid, the bound arginine can be counted using a scintillation counter. An uninhibited NOS reaction is reflected in low radioactivity. An inhibited enzyme reaction means that the radioactive arginine has not been converted. This means that a high level of radioactivity is found on the filter.
Rat cerebella were used as the starting tissue. The animals were anaesthetized and sacrificed, the brain tissue, the cerebellum, was removed by dissection, 1 ml of enzyme preparation buffer was added per rat cerebellum (4° C.), and disintegration was carried out using a Polytron homogeniser for 1 minute at 6000 rpm, followed by centrifugation for 15 minutes at 4° C. and 20,000 g; the supernatant was then removed by decantation and frozen in portions at −80° C. (the precipitate was discarded).
96-well MTP having a well capacity of <250 μl were used.
Pipetting sequence: see Table 1.
When the pipetting operation was complete, a cover was placed on the MTP (assay MTP), and incubation was at 25° C. (room temperature (RT)) for from 5 to 60 minutes, according to the amount and activity of the enzyme used.
The contents of the assay MTP were then transferred with the aid of a 96-well cell harvester to a 96-well cation exchanger MTP (filter MTP) and filtered off with suction. This was followed by washing once with […] of H2O (from a bath).
The plate was then dried for 1 hour at 60° C. in a drying cabinet. The underside of the filter MTP was then accurately sealed from beneath with a “back seal”. 35 μl of scintillation fluid per well were then added by means of a pipette. The upper side of the plate was also sealed with a “top seal”. […]

SMILES	HTS-NOS assay: % inhibition (10 μM) [%]
C#[N+]CCCCCCNc1c(-c2ccc[nH]2)nc2cc(C)cc(C)n12 [Example 4, {6-[5,7-Dimethyl-2-(1H-pyrrol-2-yl)-imidazo[1,2-a]pyridin-3-ylamino]-hexyl}-methylidyne-ammonium]	54
C#[N+]CCCCCCN(C(C)=O)c1c(-c2ccccn2)nc2cc(C)cc(C)n12 [Example 289, {6-[acetyl-(5,7-dimethyl-2-pyridin-2-yl-imidazo[1,2-a]pyridin-3-yl)-amino]-hexyl}-methylidyne-ammonium]	63

same assay, conditions: Table 5; concentration not given

NOS assay % inhibition [%]	SMILES
73	Cc1cc(C)n2c(NC3CCCC3)c(-c3ccc(-c4ccc(Cl)cc4)o3)nc2c1.Cl [Example 306, {2-[5-(4-Chlorophenyl)-furan-2-yl]-5,7-dimethyl-imidazo[1,2-a]pyridin-3-yl}-cyclopentyl-amine hydrochloride]

same assay, conditions: read-out: HTS-NOS assay: % inhibition (10 μM)

SMILES	inhibition at 10 µM [%]
CC(=O)N(c1c(C)cccc1C)c1c(-c2cccc(Oc3ccc(Cl)cc3)c2)nc2ccccn12 [Example 195, N-{2-[3-(4-chloro-phenoxy)-phenyl]-imidazo[1,2-a]pyridin-3-yl}-N-(2,6-dimethyl-phenyl)-acetamide]	54
Cc1ccn2c(NC3CCCCC3)c(-c3ccccn3)nc2c1 [Example 140, Cyclohexyl-(7-methyl-2-pyridin-2-yl-imidazo[1,2-a]pyridin-3-yl)-amine]	55
CCCCNc1c(-c2cccc(OC)c2OC)nc2cc(C)ccn12 [Example 74, Butyl-[2-(2,3-dimethoxy-phenyl)-7-methyl-imidazo[1,2-a]pyridin-3-yl]-amine]	62
CCc1ccn2c(Nc3ccc(F)c(Cl)c3)c(-c3ccc(-c4ccccc4Cl)o3)nc2c1 [Example 321, (3-Chloro-4-fluorophenyl)-{2-[5-(2-chlorophenyl)-furan-2-yl]-7-ethyl-imidazo[1,2-a]pyridin-3-yl}-amine]	50
CCCCNc1c(-c2ccccc2OC)nc2ccc(C)cn12 [Example 138, Butyl-[2-(2-methoxy-phenyl)-6-methyl-imidazo[1,2-a]pyridin-3-yl]-amine]	52
CCCCNc1c(-c2ccc(C(=O)O)s2)nc2cnccn12 [Example 113, 5-(3-Butylamino-imidazo[1,2-a]pyrazin-2-yl)-thiophene-2-carboxylic acid]	54
COc1ccc(-c2nc3cc(C)ccn3c2N(C(C)=O)c2c(C)cccc2C)cc1OC [Example 207, N-[2-(3,4-dimethoxy-phenyl)-7-methyl-imidazo[1,2-a]pyridin-3-yl]-N-(2,6-dimethyl-phenyl)-acetamide]	51
CC(=O)N(c1c(-c2c(F)cccc2Cl)nc2ccccn12)C(C)(C)C [Example 258, N-tert-butyl-N-[2-(2-chloro-6-fluoro-phenyl)-imidazo[1,2-a]pyridin-3-yl]-acetamide]	60
Cc1ccc(-c2nc3c(C)cccn3c2NC(C)(C)CC(C)(C)C)cc1 [Example 133, (8-Methyl-2-p-tolyl-imidazo[1,2-a]pyridin-3-yl)-(1,1,3,3-tetramethyl-butyl)-amine]	52
COc1cc(-c2nc3c(C)cc(Br)cn3c2N(C(C)=O)c2c(C)cccc2C)ccc1OC(C)=O [Example 213, acetic acid 4-{3-[acetyl-(2,6-dimethyl-phenyl)-amino]-6-bromo-8-methyl-imidazo[1,2-a]pyridin-2-yl}-2-methoxy-phenyl ester]	69
CC(=O)N(c1c(-c2ccc(C)s2)nc2ncccn12)C(C)(C)C [Example 266, N-tert-butyl-N-[2-(5-methyl-thiophen-2-yl)-imidazo[1,2-a]pyrimidin-3-yl]-acetamide]	53
Cc1ccn2c(NC(C)(C)CC(C)(C)C)c(-c3ccc(Cl)cc3Cl)nc2c1 [Example 85, [2-(2,4-Dichlorophenyl)-7-methyl-imidazo[1,2-a]pyridin-3-yl]-(1,1,3,3-tetramethyl-butyl)-amine]	61
CC(=O)N(c1c(-c2ccco2)nc2c(C(=O)O)cccn12)C(C)(C)CC(C)(C)C [Example 267, 3-[acetyl-(1,1,3,3-tetramethyl-butyl)-amino]-2-furan-2-yl-imidazo[1,2-a]pyridine-8-carboxylic acid]	62
CC(=O)N(c1c(-c2ccccn2)nc2cc(C)ccn12)C(C)(C)C [Example 191, N-tert-butyl-N-(7-methyl-2-pyridin-2-yl-imidazo[1,2-a]pyridin-3-yl)-acetamide]	57
Cc1cc(C)n2c(NC(C)(C)C)c(C)nc2c1 [Example 14, Tert-butyl-(2,5,7-trimethyl-imidazo[1,2-a]-pyridin-3-yl)-amine]	67

Next, values leading:

inhibition at 10 µM [%]	SMILES
56	Cc1cc(C)n2c(NC(C)(C)C)c(-c3ccc(C(=O)O)o3)nc2c1 [Example 67, 5-(3-Tert-butylamino-5,7-dimethyl-imidazo[1,2-a]pyridin-2-yl)-furan-2-carboxylic acid]
59	CC(=O)N(c1c(-c2ccc(Cl)cc2Cl)nc2ncccn12)C1CCCCC1 [Example 275, N-cyclohexyl-N-[2-(2,4-dichloro-phenyl)-imidazo[1,2-a]pyrimidin-3-yl]-acetamide]
65	Cc1ccn2c(NC3CCCCC3)c(-c3cc(C)c(C)o3)nc2c1 [Example 105, Cyclohexyl-[2-(4,5-dimethyl-furan-2-yl)-7-methyl-imidazo[1,2-a]pyridin-3-yl]-amine]
67	CC(=O)N(c1c(-c2ccc(C)cc2)nc2cc(C)cc(C)n12)C(C)(C)CC(C)(C)C [Example 162, N-(5,7-dimethyl-2-p-tolyl-imidazo[1,2-a]pyridin-3-yl)-N-(1,1,3,3-tetramethylbutyl)-acetamide]
65	Cc1ccn2c(NC3CCCCC3)c(-c3ccncc3)nc2c1 [Example 7, Cyclohexyl-(7-methyl-2-pyridin-4-yl-imidazo[1,2-a]pyridin-3-yl)-amine]
70	CC(=O)N(c1c(-c2ccc(C(=O)O)o2)nc2cc(C)cc(C)n12)C1CCCCC1 [Example 197, 5-[3-(acetyl-cyclohexyl-amino)-5,7-dimethyl-imidazo[1,2-a]pyridin-2-yl]-furan-2-carboxylic acid]
67	CC(=O)N(c1c(-c2ccc([N+](=O)[O-])o2)nc2cc(C)cc(C)n12)C1CCCCC1 [Example 173, N-cyclohexyl-N-[5,7-dimethyl-2-(5-nitro-furan-2-yl)-imidazo[1,2-a]pyridin-3-yl]-acetamide]
72	CC(=O)N(c1c(-c2cccnc2)nc2cc(C)cc(C)n12)C1CCCCC1 [Example 192, N-cyclohexyl-N-(5,7-dimethyl-2-pyridin-3-yl-imidazo[1,2-a]pyridin-3-yl)-acetamide]
63	CC(=O)N(c1c(-c2ccncc2)nc2cc(C)ccn12)C1CCCCC1 [Example 163, N-cyclohexyl-N-(7-methyl-2-pyridin-4-yl-imidazo[1,2-a]pyridin-3-yl)-acetamide]
62	Cc1cc(C)n2c(NC3CCCCC3)c(-c3ccncc3)nc2c1 [Example 2, Cyclohexyl-(5,7-dimethyl-2-pyridin-4-yl-imidazo[1,2-a]pyridin-3-yl)-amine]
60	CC(=O)N(c1c(-c2cccc(O)c2)nc2cc(C)cc(C)n12)C(C)(C)CC(C)(C)C [Example 181, N-[2-(3-hydroxy-phenyl)-5,7-dimethyl-imidazo[1,2-a]pyridin-3-yl]-N-(1,1,3,3-tetramethyl-butyl)-acetamide]
